# Reference: ChEMBL document CHEMBL1201862, “PubChem BioAssay data set” (2004)
#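 Cultured in 96-well plates, cells were exposed to test compound for 48 hours across five concentrations. At the GI50, growth is halved.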 Calls of active or inactive are those of the source. No stated cut-off is given here; in the data, active = GI50 up to about 1.1 µM and inactive = higher.
# Columns and labels:
# Assay in all cases: NCI anticancer screen, dose series, 48 h
# A549 = test system: A549
# A498 = test system: A498
# U-251 = test system: U-251
# SW-620 = test system: SW-620
# NCI-H226 = test system: NCI-H226
# MOLT-4 = test system: MOLT-4
# RPMI-8226 = test system: RPMI-8226
# OVCAR-4 = test system: OVCAR-4
# Malme-3M = test system: Malme-3M
# EKVX = test system: EKVX
# SNB-19 = test system: SNB-19
# LOX IMVI = test system: LOX IMVI
# HT-29 = test system: HT-29
# SF-268 = test system: SF-268
# SK-OV-3 = test system: SK-OV-3
# SR = test system: SR
# NCI-H522 = test system: NCI-H522
Structure (SMILES),GI50 (A549),GI50 (A498),GI50 (U-251),GI50 (SW-620),GI50 (NCI-H226),GI50 (MOLT-4),GI50 (RPMI-8226),GI50 (OVCAR-4),GI50 (Malme-3M),GI50 (EKVX),GI50 (SNB-19),GI50 (LOX IMVI),GI50 (HT-29),GI50 (SF-268),GI50 (SK-OV-3),GI50 (SR),GI50 (NCI-H522)
COC(=O)N1C=Cc2c(c(C)c3c([nH]c4ccccc43)c2C)C1C (configuration not stated),18 µM (inactive),14.1 µM (inactive),16 µM (inactive),17.7 µM (inactive),17.6 µM (inactive),5.97 µM (inactive),7.62 µM (inactive),12.3 µM (inactive),18.1 µM (inactive),14 µM (inactive),18 µM (inactive),16.4 µM (inactive),11.3 µM (inactive),18.2 µM (inactive),27.4 µM (inactive),–,–
CC(=O)Oc1ccc(Nn2c3ccccc3c3ccccc32)c(C)c1,56.8 µM (inactive),–,46 µM (inactive),25.2 µM (inactive),–,23.4 µM (inactive),15.7 µM (inactive),–,28.6 µM (inactive),–,78.7 µM (inactive),> 10 µM (inactive),–,45.9 µM (inactive),40.9 µM (inactive),21.7 µM (inactive),19.3 µM (inactive)
CN(C)CCNC(=O)c1cccc2c1nc(-c1cccnc1)c1ccccc12,1.21 µM (inactive),1.61 µM (inactive),3.75 µM (inactive),2.17 µM (inactive),2.3 µM (inactive),0.311 µM (active),–,4.91 µM (inactive),–,4.24 µM (inactive),7.05 µM (inactive),2.15 µM (inactive),3.76 µM (inactive),6.05 µM (inactive),10 µM (inactive),–,–
CCCCCCCCCCCC(=O)C1=C(O)CCC(O)C1=O (configuration not stated),29.9 µM (inactive),16.2 µM (inactive),14.6 µM (inactive),13.2 µM (inactive),18 µM (inactive),17.9 µM (inactive),–,18.5 µM (inactive),17 µM (inactive),5.86 µM (inactive),9.08 µM (inactive),11.3 µM (inactive),15.6 µM (inactive),27.2 µM (inactive),26.8 µM (inactive),–,12.1 µM (inactive)
O=C(O)CCCCCCC[C@H]1S[C@H]1CCCCCCO,–,–,> 100 µM (inactive),–,–,> 100 µM (inactive),> 100 µM (inactive),> 100 µM (inactive),> 100 µM (inactive),> 100 µM (inactive),> 100 µM (inactive),–,> 100 µM (inactive),> 100 µM (inactive),> 100 µM (inactive),> 100 µM (inactive),–
COC(=O)c1s/c(=N\C(=S)N(C)C)n(-c2ccccc2)c1C(=O)OC,> 100 µM (inactive),> 100 µM (inactive),> 100 µM (inactive),> 100 µM (inactive),> 100 µM (inactive),66.8 µM (inactive),73.5 µM (inactive),94 µM (inactive),> 100 µM (inactive),> 100 µM (inactive),> 100 µM (inactive),> 100 µM (inactive),57 µM (inactive),> 100 µM (inactive),> 100 µM (inactive),–,> 100 µM (inactive)
CC(=O)C1C(=O)C(=O)N(c2ccc(Cl)cc2C)C1=O (configuration not stated),> 100 µM (inactive),> 100 µM (inactive),> 100 µM (inactive),> 100 µM (inactive),–,> 100 µM (inactive),–,> 100 µM (inactive),> 100 µM (inactive),> 100 µM (inactive),> 100 µM (inactive),–,> 100 µM (inactive),> 100 µM (inactive),–,> 100 µM (inactive),> 100 µM (inactive)
O=C1NC2CCCCCC2C12CCCCC2 (configuration not stated),> 100 µM (inactive),> 100 µM (inactive),> 100 µM (inactive),> 100 µM (inactive),> 100 µM (inactive),> 100 µM (inactive),–,> 100 µM (inactive),> 100 µM (inactive),> 100 µM (inactive),> 100 µM (inactive),> 100 µM (inactive),> 100 µM (inactive),> 100 µM (inactive),> 100 µM (inactive),> 100 µM (inactive),–
Cn1c2ccccc2c2ccc3c(c21)C(=O)C(c1ccccc1)=CC3=O,34.4 µM (inactive),–,36.8 µM (inactive),–,11.7 µM (inactive),14.8 µM (inactive),23.6 µM (inactive),–,21.9 µM (inactive),23.2 µM (inactive),42.5 µM (inactive),–,45.4 µM (inactive),36 µM (inactive),81.3 µM (inactive),–,19.2 µM (inactive)
O=C(NNc1ccc([N+](=O)[O-])cc1)C1OC(CO)C(O)C1O (configuration not stated),> 100 µM (inactive),> 100 µM (inactive),> 100 µM (inactive),21.8 µM (inactive),> 100 µM (inactive),> 100 µM (inactive),30.5 µM (inactive),> 100 µM (inactive),> 100 µM (inactive),> 100 µM (inactive),> 100 µM (inactive),> 100 µM (inactive),59.8 µM (inactive),> 100 µM (inactive),> 100 µM (inactive),–,–
